Data from patent US20140288069A1, “AMINO-SUBSTITUTED IMIDAZOPYRIDAZINES AS MKNK1 KINASE INHIBITORS” (Bayer Intellectual Property GmbH, priority 2011, published 2014).

The molecules below were run against T1, human full-length MKNK1 (Homo sapiens, UniProt Q9BUB5, T385D) (assay: MKNK1 kinase high ATP assay (TR-FRET-based)). Conditions: final ATP 2 mM, 15 min pre-incubation with MKNK1, GST-MKNK1 (T344D).
T1 construct: GST (N); purchased Carna Biosciences 02-145; host or cells: insect cells (baculovirus)
Assay type: biochemical
Source text: A recombinant fusion protein of Glutathione-S-Transferase (GST, N-terminally) and human full-length MKNK1 (amino acids 1-424 and T344D of accession number BAA 19885.1), expressed in insect cells using baculovirus expression system and purified via glutathione sepharose affinity chromatography, was purchased from Carna Biosciences (product no 02-145) and used as enzyme. As substrate for the kinase reaction the biotinylated peptide biotin-Ahx-[sequence] (C-terminus in amide form) was used, which can be purchased e.g. from the company Biosyntan (Berlin-Buch, Germany).
For the assay 50 nl nL of a 100 fold concentrated solution of the test compound in DMSO was pipetted into a black low volume 384 well microtiter plate (Greiner Bio-One, Frickenhausen, Germany), 2 μL of a solution of MKNK1 in aqueous assay buffer [50 mM HEPES pH 7.5, 5 mM magnesium chloride, 1.0 mM dithiothreitol, 0.005% (v/v) Nonidet-P40 (Sigma)] was added and the mixture was incubated for 15 min at 22° C. to allow pre-binding of the test compounds to the enzyme before the start of the kinase reaction. Then the kinase reaction was started by the addition of 3 μL of a solution of adenosine-tri-phosphate (ATP, 3.3 mM=>final conc. in the 5 μL assay volume is 2 mM) and substrate (0.1 μM=>final conc. in the 5 μL assay volume is 0.06 μM) in assay buffer and the resulting mixture was incubated for a reaction time of 30 min at 22° C. The concentration of MKNK1 was adjusted depending of the activity of the enzyme lot and was chosen appropriate to have the assay in the linear range, typical concentrations were in the range of 0.003 μg/mL. The reaction was stopped by the addition of 5 μL of a solution of TR-FRET detection reagents (5 nM streptavidine-XL665 [Cisbio Bioassays, Codolet, France] and 1 nM anti-ribosomal protein S6 (pSer236)-antibody from Invitrogen [#44921G] and 1 nM LANCE EU-W1024 labeled ProteinG [Perkin-Elmer, product no. 4D0071]) in an aqueous EDTA-solution (100 mM EDTA, 0.1% (w/v) bovine serum albumin in 50 mM HEPES pH 7.5).
The resulting mixture was incubated for 1 h at 22° C. to allow the formation of complex between the phosphorylated biotinylated peptide and the detection reagents. Subsequently the amount of phosphorylated substrate was evaluated by measurement of the resonance energy transfer from the Eu-chelate to the streptavidine-XL. Therefore, the fluorescence emissions at 620 nm and 665 nm after excitation at 350 nm were measured in a TR-FRET reader, e.g. a Rubystar (BMG Labtechnologies, Offenburg, Germany) or a Viewlux (Perkin-Elmer). The ratio of the emissions at 665 nm and at 622 nm was taken as the measure for the amount of phosphorylated substrate.

T1 sequence (Q9BUB5 1-424 isoform Q9BUB5-2 T344D): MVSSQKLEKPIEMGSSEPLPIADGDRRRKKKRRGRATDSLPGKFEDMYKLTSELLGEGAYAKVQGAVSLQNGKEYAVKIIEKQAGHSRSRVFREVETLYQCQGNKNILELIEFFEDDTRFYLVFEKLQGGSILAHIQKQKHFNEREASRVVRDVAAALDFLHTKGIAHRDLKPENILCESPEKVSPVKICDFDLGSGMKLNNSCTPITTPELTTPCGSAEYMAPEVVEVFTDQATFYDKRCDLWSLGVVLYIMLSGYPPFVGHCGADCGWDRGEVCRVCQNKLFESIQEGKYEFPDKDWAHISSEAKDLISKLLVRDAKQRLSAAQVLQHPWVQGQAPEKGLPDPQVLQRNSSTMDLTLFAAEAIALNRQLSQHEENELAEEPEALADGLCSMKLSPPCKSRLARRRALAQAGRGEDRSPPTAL

SMILES	IC50
OC(CNc1ccc2ncc(-c3cc4ccccc4o3)n2n1)C1CC1 (single isomer, unassigned; (+)) [Example 23, (+)-2-{[3-(1-Benzofuran-2-yl)imidazo[1,2-b]pyridazin-6-yl]amino}-1-cyclopropylethanol]	0.027 µM
OC(CNc1ccc2ncc(-c3cc4ccccc4o3)n2n1)C1CCOCC1 (single isomer, unassigned; (+)) [Example 25, (+)-2-{[3-(1-Benzofuran-2-yl)imidazo[1,2-b]pyridazin-6-yl]amino}-1-(tetrahydro-2H-pyran-4-yl)]	0.007 µM
OC(CNc1ccc2ncc(-c3cc4ccccc4o3)n2n1)C1CC1 (single isomer, unassigned; (-)) [Example 24, (−)-2-{[3-(1-Benzofuran-2-yl)imidazo[1,2-b]pyridazin-6-yl]amino}-1-cyclopropylethanol]	0.001 µM
OC(CNc1ccc2ncc(-c3cc4ccccc4o3)n2n1)C1CCOCC1 (single isomer, unassigned; (-)) [Example 26, (−)-2-{[3-(1-Benzofuran-2-yl)imidazo[1,2-b]pyridazin-6-yl]amino}-1-(tetrahydro-2H-pyran-4-yl)]	0.002 µM
COc1nccc2oc(-c3cnc4ccc(NCC(O)C5CC5)nn34)cc12 (centres unmarked) [Example 27, 1-Cyclopropyl-2-{[3-(4-methoxyfuro[3,2-c]pyridin-2-yl)imidazo[1,2-b]pyridazin-6-yl]amino}ethanol]	0.004 µM
COc1nccc2oc(-c3cnc4ccc(NC[C@H](O)c5ccccc5)nn34)cc12 [Example 28, (1R)-2-{[3-(4-Methoxyfuro[3,2-c]pyridin-2-yl)imidazo[1,2-b]pyridazin-6-yl]amino}-1-phenylethanol]	0.005 µM
CCC(O)CNc1ccc2ncc(-c3cc4ccccc4o3)n2n1 (centres unmarked) [Example 29, 1-{[3-(1-Benzofuran-2-yl)imidazo[1,2-b]pyridazin-6-yl]amino}butan-2-ol]	0.006 µM
CCC(O)CNc1ccc2ncc(-c3cc4c(OC)nccc4o3)n2n1 (centres unmarked) [Example 30, 1-{[3-(4-Methoxyfuro[3,2-c]pyridin-2-yl)imidazo[1,2-b]pyridazin-6-yl]amino}butan-2-ol]	0.006 µM
NCC(O)CNc1ccc2ncc(-c3cc4ccccc4o3)n2n1 (centres unmarked) [Example 31, 1-Amino-3-{[3-(1-benzofuran-2-yl)imidazo[1,2-b]pyridazin-6-yl]amino}propan-2-ol]	0.008 µM
COc1nccc2oc(-c3cnc4ccc(NCC(O)C5CCOCC5)nn34)cc12 (centres unmarked) [Example 32, 2-{[3-(4-Methoxyfuro[3,2-c]pyridin-2-yl)imidazo[1,2-b]pyridazin-6-yl]amino}-1-(tetrahydro-2H-pyran-4-yl)ethanol]	0.018 µM
CC(C)C(O)CNc1ccc2ncc(-c3cc4ccccc4o3)n2n1 (centres unmarked) [Example 33, 1-{[3-(1-Benzofuran-2-yl)imidazo[1,2-b]pyridazin-6-yl]amino}-3-methylbutan-2-ol]	0.021 µM
CC(C)(C)C(O)CNc1ccc2ncc(-c3cc4ccccc4o3)n2n1 (centres unmarked) [Example 34, 1-{[3-(1-Benzofuran-2-yl)imidazo[1,2-b]pyridazin-6-yl]amino}-3,3-dimethylbutan-2-ol]	0.021 µM
COc1nccc2oc(-c3cnc4ccc(NC[C@@H](O)c5ccccc5)nn34)cc12 [Example 35, (1S)-2-{[3-(4-Methoxyfuro[3,2-c]pyridin-2-yl)imidazo[1,2-b]pyridazin-6-yl]-amino}-1-phenylethanol]	0.025 µM
O=C1CCCN1CC(O)CNc1ccc2ncc(-c3cc4ccccc4o3)n2n1 (centres unmarked) [Example 36, 1-(3-{[3-(1-Benzofuran-2-yl)imidazo[1,2-b]pyridazin-6-yl]amino}-2-hydroxy-propyl)pyrrolidin-2-one]	0.026 µM

The remaining lines, values ahead:

IC50	SMILES
0.029 µM	OC(CNc1ccc2ncc(-c3cc4ccccc4o3)n2n1)C1CCCCC1 (centres unmarked) [Example 37, 2-{[3-(1-Benzofuran-2-yl)imidazo[1,2-b]pyridazin-6-yl]amino}-1-cyclohexylethanol]
0.032 µM	OC(CNc1ccc2ncc(-c3cc4ccccc4o3)n2n1)CN1CCOCC1 (centres unmarked) [Example 38, 1-{[3-(1-Benzofuran-2-yl)imidazo[1,2-b]pyridazin-6-yl]amino}-3-(morpholin-4-yl)propan-2-ol]
0.037 µM	OC(CNc1ccc2ncc(-c3cc4ccccc4o3)n2n1)CN1CCCCC1 (centres unmarked) [Example 39, 1-{[3-(1-Benzofuran-2-yl)imidazo[1,2-b]pyridazin-6-yl]amino}-3-(piperidin-1-yl)propan-2-ol]
0.038 µM	OC(CNc1ccc2ncc(-c3cc4ccccc4o3)n2n1)CN1CCCC1 (centres unmarked) [Example 40, 1-{[3-(1-Benzofuran-2-yl)imidazo[1,2-b]pyridazin-6-yl]amino}-3-(pyrrolidin-1-yl)propan-2-ol]
0.041 µM	OC(CNc1ccc2ncc(-c3cc4ccccc4o3)n2n1)c1ccc(F)cc1 (centres unmarked) [Example 41, 2-{[3-(1-Benzofuran-2-yl)imidazo[1,2-b]pyridazin-6-yl]amino}-1-(4-fluoro-phenyl)ethanol]
0.37 µM	c1ccc(CNc2ccc3ncc(-c4ccncc4)n3n2)cc1 [Example R1, N-Benzyl-3-(pyridin-4-yl)imidazo[1,2-b]pyridazin-6-amine, reference compound]
0.17 µM	c1ccc(Nc2ccc3ncc(-c4ccncc4)n3n2)cc1 [Example R2, N-Phenyl-3-(pyridin-4-yl)imidazo-[1,2-b]-pyridazin-6-amine, reference compound]
0.81 µM	c1cc(Nc2ccc3ncc(-c4ccncc4)n3n2)ccn1 [Example R4, N,3-Di(pyridin-4-yl)-imidazo-[1,2-b]-pyridazin-6-amine, reference compound]
0.48 µM	c1cc(-c2cnc3ccc(NC4CCOCC4)nn23)ccn1 [Example R5, 3-(Pyridin-4-yl)-N-(tetra-hydro-2H-pyran-4-yl)-imidazo-[1,2-b]-pyridazin-6-amine, reference compound]
0.25 µM	c1ccc(CCNc2ccc3ncc(-c4cc5ccccc5o4)n3n2)nc1 [Example R6, 3-(1-Benzofuran-2-yl)-N-[2-(pyridin-2-yl)ethyl]imidazo[1,2-b]pyridazin-6-amine, reference compound]
0.013 µM	CN(C)CCNc1ccc2ncc(-c3cc4ccccc4o3)n2n1 [Example R7, N′-[3-(1-Benzofuran-2-yl)imidazo[1,2-b]pyridazin-6-yl]-N,N-dimethylethane-1,2-diamine, reference compound]
0.034 µM	c1ccc2oc(-c3cnc4ccc(NCc5ccncc5)nn34)cc2c1 [Example R8, 3-(1-Benzofuran-2-yl)-N-(pyridin-4-ylmethyl)imidazo[1,2-b]pyridazin-6-amine, reference compound]

What follows are molecules tested against T2, human full-lengt MKNK1 (Homo sapiens, UniProt Q9BUB5, T385D) (assay: MKNK1 kinase assay (MKNK1 TR-FRET assay)). Conditions: final ATP 10 μM, 15 min pre-incubation, GST-MKNK1 (T344D).
T2 construct: GST (N); purchased Carna Biosciences 02-145; host or cells: insect cells (baculovirus)
Assay type: biochemical
Procedure: MKNK1-inhibitory activity of compounds of the present invention was quantified employing the MKNK1 TR-FRET assay as described in the following paragraphs.
As substrate for the kinase reaction the biotinylated peptide biotin-Ahx-[sequence] (C-terminus in amide form) was used which can be purchased e.g. form the company Biosyntan (Berlin-Buch, Germany).
For the assay 50 mL of a 100 fold concentrated solution of the test compound in DMSO was pipetted into a black low volume 384 well microtiter plate (Greiner Bio-One, Frickenhausen, Germany), 2 μL of a solution of MKNK1 in aqueous assay buffer [50 mM HEPES pH 7.5, 5 mM magnesium chloride, 1.0 mM dithiothreitol, 0.005% (v/v) Nonidet-P40 (Sigma)] was added and the mixture was incubated for 15 min at 22° C. to allow pre-binding of the test compounds to the enzyme before the start of the kinase reaction. […] The concentration of MKNK1 was adjusted depending of the activity of the enzyme lot and was chosen appropriate to have the assay in the linear range, typical concentrations were in the range of 0.05 μg/ml. The reaction was stopped by the addition of 5 μL of a solution of TR-FRET detection reagents (5 nM streptavidine-XL665 [Cisbio Bioassays, Codalet, France] and 1 nM anti-ribosomal protein S6 (pSer236)-antibody from Invitrogen [#44921G] and 1 nM LANCE EU-W1024 labeled ProteinG [Perkin-Elmer, product no. 4D0071]) in an aqueous EDTA-solution (100 mM EDTA, 0.1% (w/v) bovine serum albumin in 50 mM HEPES pH 7.5).
The resulting mixture was incubated for 1 h at 22° C. to allow the formation of complex between the phosphorylated biotinylated peptide and the detection reagents. Subsequently the amount of phosphorylated substrate was evaluated by measurement of the resonance energy transfer from the Eu-chelate to the streptavidine-XL.

T2 sequence (Q9BUB5 1-424 isoform Q9BUB5-2 T344D): as above

SMILES	IC50
CC[C@@H](CO)Nc1ccc2ncc(-c3cc4ccccc4o3)n2n1 [Example 4, (2S)-2-{[3-(1-Benzofuran-2-yl)-imidazo[1,2-b]-pyridazin-6-yl]-amino}butan-1-ol]	0.015 µM
OCCNc1ccc2ncc(-c3cc4ccccc4o3)n2n1 [Example 13, 2-{[3-(1-Benzofuran-2-yl)imidazo[1,2-b]pyridazin-6-yl]amino}ethanol]	0.006 µM
OCCCNc1ccc2ncc(-c3cc4ccccc4o3)n2n1 [Example 14, 3-{[3-(1-Benzofuran-2-yl)imidazo[1,2-b]pyridazin-6-yl]amino}propan-1-ol]	0.007 µM
OC(CCNc1ccc2ncc(-c3cc4ccccc4o3)n2n1)c1ccc(F)cc1 (centres unmarked) [Example 15, 3-{[3-(1-Benzofuran-2-yl)-imidazo-[1,2-b]-pyridazin-6-yl]-amino}-1-(4-fluoro-phenyl)-propan-1-ol]	0.032 µM
OC[C@H](O)CNc1ccc2ncc(-c3cc4ccccc4o3)n2n1 [Example 16, (2R)-3-{[3-(1-Benzofuran-2-yl)imidazo[1,2-b]pyridazin-6-yl]amino}propane-1,2-diol]	0.004 µM
OC[C@@H](O)CNc1ccc2ncc(-c3cc4ccccc4o3)n2n1 [Example 17, (2S)-3-{[3-(1-Benzofuran-2-yl)-imidazo-[1,2-b]-pyridazin-6-yl]amino}-propane-1,2-diol]	0.013 µM
O[C@@H](CNc1ccc2ncc(-c3cc4ccccc4o3)n2n1)c1ccccc1 [Example 18, (1R)-2-{[3-(1-Benzofuran-2-yl)imidazo[1,2-b]pyridazin-6-yl]amino}-1-phenylethanol]	0.001 µM
O[C@H](CNc1ccc2ncc(-c3cc4ccccc4o3)n2n1)c1ccccc1 [Example 19, (1S)-2-{[3-(1-Benzofuran-2-yl)imidazo[1,2-b]pyridazin-6-yl]amino}-1-phenylethanol]	0.022 µM
O[C@@H](CNc1ccc2ncc(-c3cc4ccccc4o3)n2n1)c1cccnc1 [Example 20, (1R)-2-{[3-(1-Benzofuran-2-yl)imidazo[1,2-b]pyridazin-6-yl]amino}-1-(pyridin-3-yl)ethanol]	0.001 µM
CC(O)(CNc1ccc2ncc(-c3cc4ccccc4o3)n2n1)c1ccccc1 (centres unmarked) [Example 21, 1-{[3-(1-Benzofuran-2-yl)imidazo[1,2-b]pyridazin-6-yl]amino}-2-phenylpropan-2-ol]	0.06 µM
OC(CNc1ccc2ncc(-c3cc4ccccc4o3)n2n1)c1ccccn1 (centres unmarked) [Example 22, 2-{[3-(1-Benzofuran-2-yl)imidazo[1,2-b]pyridazin-6-yl]amino}-1-(pyridin-2-yl)ethanol]	0.005 µM

Other lines, results leading:

IC50	SMILES
0.181 µM	c1ccc(CNc2ccc3ncc(-c4ccncc4)n3n2)cc1 [Example R1, N-Benzyl-3-(pyridin-4-yl)imidazo[1,2-b]pyridazin-6-amine, reference compound]
0.064 µM	c1ccc(Nc2ccc3ncc(-c4ccncc4)n3n2)cc1 [Example R2, N-Phenyl-3-(pyridin-4-yl)imidazo-[1,2-b]-pyridazin-6-amine, reference compound]
0.245 µM	c1cc(Nc2ccc3ncc(-c4ccncc4)n3n2)ccn1 [Example R4, N,3-Di(pyridin-4-yl)-imidazo-[1,2-b]-pyridazin-6-amine, reference compound]
0.192 µM	c1cc(-c2cnc3ccc(NC4CCOCC4)nn23)ccn1 [Example R5, 3-(Pyridin-4-yl)-N-(tetra-hydro-2H-pyran-4-yl)-imidazo-[1,2-b]-pyridazin-6-amine, reference compound]
0.017 µM	c1ccc(CCNc2ccc3ncc(-c4cc5ccccc5o4)n3n2)nc1 [Example R6, 3-(1-Benzofuran-2-yl)-N-[2-(pyridin-2-yl)ethyl]imidazo[1,2-b]pyridazin-6-amine, reference compound]
0.011 µM	CN(C)CCNc1ccc2ncc(-c3cc4ccccc4o3)n2n1 [Example R7, N′-[3-(1-Benzofuran-2-yl)imidazo[1,2-b]pyridazin-6-yl]-N,N-dimethylethane-1,2-diamine, reference compound]
0.023 µM	c1ccc2oc(-c3cnc4ccc(NCc5ccncc5)nn34)cc2c1 [Example R8, 3-(1-Benzofuran-2-yl)-N-(pyridin-4-ylmethyl)imidazo[1,2-b]pyridazin-6-amine, reference compound]
